Results: patent publication US4272437A, “Antibacterial agents, and 4-thio azetidinone intermediates” (priority 1979, dated 1981)
Converted amounts (≈) assume the structure as drawn. Like-named read-outs stand apart in the source and are kept apart here.

Experiments:
[1] = system: Ps. aeruginosa A-21213; assay: MIC, tube dilution, Pseudomonas aeruginosa A21213; type: cell-based; details: Pseudomonas aeruginosa A21213; overnight 37° C.; read-out: Minimum Inhibitory Concentration (M.I.C.)
Source text: (§1) Representative compounds of the present invention were subjected to in vitro antibiotic screening against a variety of microorganisms.

[2] = system: Ent. cloacae A-9656; assay: MIC, tube dilution, Enterobacter cloacae A9656; type: cell-based; details: overnight 37° C., read-out: Minimum Inhibitory Concentration (M.I.C.)
Source text: as §1

[3] = system: Str. faecalis A-20688; assay: MIC, tube dilution, Streptococcus faecalis A20688; type: cell-based; details: Enterococcus faecalis, A20688, Str. faecalis A20688; overnight 37° C.; read-out: Minimum Inhibitory Concentration (M.I.C.)
Source text: as §1

[4] = system: Ser. marcescens A-20019; assay: MIC, tube dilution, Serratia marcescens A20019; type: cell-based; details: Serratia marcescens, A20019, Serratia marcescens A20019; overnight 37° C.; read-out: Minimum Inhibitory Concentration (M.I.C.)
Source text: as §1

[5] = system: Staph. aureus (Meth-Res) A-15097; assay: MIC, tube dilution, Staphylococcus aureus A15097 (Meth-Res); type: cell-based; details: Staphylococcus aureus, read-out: Minimum Inhibitory Concentration (M.I.C.), Staph. aureus A15097 (Meth-Res); overnight 37° C.
Source text: as §1

[6] = system: Pr. morganii A-15153; assay: MIC, tube dilution, Proteus morganii A15153; type: cell-based; details: Morganella morganii, A15153, Proteus morganii A15153; overnight 37° C.; read-out: Minimum Inhibitory Concentration (M.I.C.)
Source text: as §1

[7] = system: E. coli A-20341-1; assay: MIC, tube dilution, Escherichia coli A20341-1; type: cell-based; details: Escherichia coli, A203411; E. coli A20341-1; overnight 37° C.; read-out: Minimum Inhibitory Concentration (M.I.C.)
Source text: as §1

[8] = system: Pr. mirabilis A-9900; assay: MIC, tube dilution, Proteus mirabilis A9900; type: cell-based; details: Proteus mirabilis, A9900, Proteus mirabilis A9900; overnight 37° C.; read-out: Minimum Inhibitory Concentration (M.I.C.)
Source text: as §1

[9] = system: Str. pyogenes A-9604; assay: MIC, tube dilution, Streptococcus pyogenes A9604; type: cell-based; details: Streptococcus pyogenes, A9604, Str. pyogenes A9604; overnight 37° C., Nutrient Broth; read-out: Minimum Inhibitory Concentration (M.I.C.)
Source text: as §1

[10] = system: Pr. vulgaris A-9716; assay: MIC, tube dilution, Proteus vulgaris / Proteus mirabilis A9716; type: cell-based, Proteus vulgaris (name changed to Proteus mirabilis); details: Proteus vulgaris, overnight 37° C.
Source text: as §1

[11] = system: Staph. aureus A-9537 and 50% serum; assay: MIC, tube dilution, Staph. aureus A9537 + 50% serum; type: cell-based, Staphylococcus aureus; details: Staphylococcus aureus, overnight 37° C., read-out: Minimum Inhibitory Concentration (M.I.C.)
Source text: as §1

[12] = system: Staph. aureus (Pen-Res) A-9606; assay: MIC, tube dilution, Staphylococcus aureus A9606 (Pen-Res); type: cell-based; details: Staphylococcus aureus, overnight 37° C.
Source text: as §1

[13] = system: Klebsiella species A20468; assay: MIC, tube dilution, Klebsiella species A20468; type: cell-based; details: Klebsiella species (K. pneumoniae) A20468; overnight 37° C.; read-out: Minimum Inhibitory Concentration (M.I.C.)
Source text: as §1

[14] = system: Ps. aeruginosa A-9843A; assay: MIC, tube dilution, Pseudomonas aeruginosa A9843A; type: cell-based; details: Pseudomonas aeruginosa, A9843A, read-out: Minimum Inhibitory Concentration (M.I.C.), Pseudomonas aeruginosa A9843A; overnight 37° C.
Source text: as §1

[15] = system: Ent. cloacae A-9659; assay: MIC, tube dilution, Enterobacter cloacae A9659; type: cell-based; details: Enterobacter cloacae, A9659, Enterobacter cloacae A9659; overnight 37° C.; read-out: Minimum Inhibitory Concentration (M.I.C.)
Source text: as §1

[16] = system: K. pneumoniae A-15130; assay: MIC, tube dilution, Klebsiella pneumoniae A15130; type: cell-based; details: Klebsiella pneumoniae, A15130, K. pneumoniae A15130; overnight 37° C.; read-out: Minimum Inhibitory Concentration (M.I.C.)
Source text: as §1

[17] = system: E. coli A-15119; assay: MIC, tube dilution, Escherichia coli A15119; type: cell-based; details: Escherichia coli, A15119, E. coli A15119; overnight 37° C.; read-out: Minimum Inhibitory Concentration (M.I.C.)
Source text: as §1

[18] = system: Proteus rettgeri A21203; assay: MIC, tube dilution, Proteus rettgeri A21203; type: cell-based; details: Providencia rettgeri, overnight 37° C., read-out: Minimum Inhibitory Concentration (M.I.C.)
Source text: as §1

[19] = system: Staph. aureus A-9537; assay: MIC, tube dilution, Staphylococcus aureus A9537; type: cell-based; details: Staphylococcus aureus, A9537, Staph. aureus A9537; overnight 37° C., Nutrient Broth; read-out: Minimum Inhibitory Concentration (M.I.C.)
Source text: as §1

[20] = system: Str. pneumoniae A-9585; assay: MIC, tube dilution, Streptococcus pneumoniae A9585; type: cell-based; details: Streptococcus pneumoniae, A9585, Str. pneumoniae A9585; overnight 37° C., Nutrient Broth; read-out: Minimum Inhibitory Concentration (M.I.C.)
Source text: as §1

[21] = Enterobacter cloacae, A9656, Enterobacter cloacae A9656
[22] = A9716, Proteus vulgaris / Proteus mirabilis A9716, read-out: Minimum Inhibitory Concentration (M.I.C.)
[23] = Staph. aureus A9606 (Pen-Res), read-out: Minimum Inhibitory Concentration (M.I.C.)
[24] = A21203, Proteus rettgeri A21203
[25] = A9716, read-out: Minimum Inhibitory Concentration (M.I.C.), Proteus vulgaris / Proteus mirabilis A9716
[26] = read-out: Minimum Inhibitory Concentration (M.I.C.), Staph. aureus A9606 (Pen-Res)

Compound | MIC [1] | MIC [2, 21] | MIC [3] | MIC [4] | MIC [5] | MIC [6] | MIC [7] | MIC [8] | MIC [9] | MIC [10, 22] | MIC [11] | MIC [12, 23] | MIC [13] | MIC [14] | MIC [15] | MIC [16] | MIC [17] | MIC [18, 24] | MIC [19] | MIC [20] | further results
O=C(O)C1=C(Cc2c[nH]c3ccccc23)SC2CC(=O)N12 (stereo not shown) [Preparation 19, 2-(3'-Indole)methylpenem-3-carboxylic Acid] | > 125 µg/mL | 63 µg/mL (≈ 210 µM) | 125 µg/mL (≈ 416 µM) | 63 µg/mL (≈ 210 µM) | 125 µg/mL (≈ 416 µM) | 2 µg/mL (≈ 6.66 µM) | > 125 µg/mL | 1 µg/mL (≈ 3.33 µM) | 0.06 µg/mL (≈ 0.2 µM) | 2 µg/mL (≈ 6.66 µM) | 32 µg/mL | 0.5 µg/mL (≈ 1.66 µM) | > 125 µg/mL | > 125 µg/mL | 63 µg/mL (≈ 210 µM) | 32 µg/mL (≈ 107 µM) | 8 µg/mL (≈ 26.6 µM) | 2 µg/mL (≈ 6.66 µM) | 0.03 µg/mL (≈ 0.0999 µM) | 0.03 µg/mL (≈ 0.0999 µM) | 
O=C(O)C1=C(Cc2cscn2)SC2CC(=O)N12 (stereo not shown) [Example 18, 2-(4'-Thiazolyl)methylpenem-3-carboxylic Acid] | 125 µg/mL (≈ 466 µM) |  | > 125 µg/mL | > 125 µg/mL | > 125 µg/mL | 125 µg/mL (≈ 466 µM) | > 125 µg/mL | > 125 µg/mL | > 125 µg/mL |  | > 63 µg/mL |  | 125 µg/mL (≈ 466 µM) | 125 µg/mL (≈ 466 µM) | > 125 µg/mL | > 125 µg/mL | > 125 µg/mL |  | 125 µg/mL (≈ 466 µM) | 125 µg/mL (≈ 466 µM) | MIC ([2]; Enterobacter cloacae A9656): > 125 µg/mL; MIC [10, 25]: 125 µg/mL (≈ 466 µM); MIC [12, 26]: > 125 µg/mL; MIC ([18]; Proteus rettgeri A21203): 125 µg/mL (≈ 466 µM)
CCOP(=O)(CCC1=C(C(=O)O)N2C(=O)CC2S1)OCC (stereo not shown) [Preparation 25, 2'-(2'-Diethylphosphono-1'-ethyl)penem-3-carboxylic Acid] | > 125 µg/mL |  | 125 µg/mL (≈ 373 µM) | 63 µg/mL (≈ 188 µM) | 4 µg/mL (≈ 11.9 µM) | 63 µg/mL (≈ 188 µM) | 2 µg/mL (≈ 5.96 µM) | 8 µg/mL (≈ 23.9 µM) | > 125 µg/mL |  | 8 µg/mL |  | 4 µg/mL (≈ 11.9 µM) | 125 µg/mL (≈ 373 µM) | 16 µg/mL (≈ 47.7 µM) | 125 µg/mL (≈ 373 µM) | 8 µg/mL (≈ 23.9 µM) |  | 1 µg/mL (≈ 2.98 µM) | 125 µg/mL (≈ 373 µM) | MIC ([2]; Enterobacter cloacae A9656): 16 µg/mL (≈ 47.7 µM); MIC [10, 25]: 63 µg/mL (≈ 188 µM); MIC [12, 26]: 32 µg/mL (≈ 95.4 µM); MIC ([18]; Proteus rettgeri A21203): 32 µg/mL (≈ 95.4 µM)
O=C(O)C1=C(C2CCC2)SC2CC(=O)N12 (stereo not shown) [Example 21, 2-Cyclobutylpenem-3-carboxylic Acid] | 125 µg/mL (≈ 555 µM) | 32 µg/mL (≈ 142 µM) | 16 µg/mL (≈ 71 µM) | 16 µg/mL (≈ 71 µM) | > 125 µg/mL | 16 µg/mL (≈ 71 µM) | 125 µg/mL (≈ 555 µM) | 2 µg/mL (≈ 8.88 µM) | 1 µg/mL (≈ 4.44 µM) | 2 µg/mL (≈ 8.88 µM) | > 63 µg/mL | 8 µg/mL (≈ 35.5 µM) | > 125 µg/mL | 125 µg/mL (≈ 555 µM) | 16 µg/mL (≈ 71 µM) | 16 µg/mL (≈ 71 µM) | 4 µg/mL (≈ 17.8 µM) | 4 µg/mL (≈ 17.8 µM) | 0.13 µg/mL (≈ 0.577 µM) | 0.13 µg/mL (≈ 0.577 µM) | 
Cn1cc(C2=C(C(=O)O)N3C(=O)CC3S2)cn1 (stereo not shown) [Example 15] | 125 µg/mL (≈ 497 µM) | 63 µg/mL (≈ 251 µM) | 63 µg/mL (≈ 251 µM) | 63 µg/mL (≈ 251 µM) | 125 µg/mL (≈ 497 µM) | 63 µg/mL (≈ 251 µM) | > 125 µg/mL | 16 µg/mL (≈ 63.7 µM) | 0.5 µg/mL (≈ 1.99 µM) | 16 µg/mL (≈ 63.7 µM) | > 63 µg/mL | 32 µg/mL (≈ 127 µM) | > 125 µg/mL | 125 µg/mL (≈ 497 µM) | 125 µg/mL (≈ 497 µM) | 125 µg/mL (≈ 497 µM) | 16 µg/mL (≈ 63.7 µM) | 16 µg/mL (≈ 63.7 µM) | 1 µg/mL (≈ 3.98 µM) | 0.13 µg/mL (≈ 0.517 µM) | 
